Experimental data: patent US9745613B2, “Compounds, substrates and methods related to histone deacetylases” (The Broad Institute, Inc., priority 2014, dated 2017)

Columns and labels:
p21 = experiment: Western blotting of p21 protein; assay type: cell-based; details: MCF7 cells, 10 μM, 48 h
Experimental: MCF7 cells were treated with compounds for 48 h, at which time, lysates were collected using RIPA buffer with added protease (Roche) and phosphatase (Roche) inhibitors. Electrophoresis was performed using NuPage 4-12% Bis-Tris gels (Invitrogen). Proteins were transferred to a nitrocellulose membrane and probed using antibodies for p21 (Cell Signaling) and GAPDH (Cell Signalling). Chemiluminescence was induced by subsequent incubation with HRP-linked secondary antibodies (GE Healthcare UK Ltd.) and treatment of the membrane with the appropriate ECL solutions (Thermo Scientific). Visualization was accomplished using a ChemiDoc MP System (Bio-Rad), and the raw data files were converted to jpegs using ImageJ (NIH).

MCF-7 cells = experiment: Global histone modification profiling; assay type: cell-based; details: 10 μM for 24 h
Experimental: Each row represents a unique combination of histone modifications (as denoted by “Histone Mark”) and each column represents a treatment of MCF-7 cells with the compound indicated at 10 μM for 24 h. Each compound treatment was performed in biological duplicate (R1 and R2). Each cell is colored by the log2-fold change over the average of the DMSO replicates as denoted in the scale bar. Global histone profiles were obtained in a manner essentially equivalent to a previous report. (Kim, J. H., Yu, S., Chen, J. D., Kong, A. N. (2013) The nuclear cofactor RAC3/AIB1/SRC-3 enhances Nrf2 signaling by interacting with transactivation domains. Oncogene 32, 514-527).

MCF7 cells [1] = experiment: L1000 gene expression profiling; assay type: cell-based, human; details: for number of dose-responsive genes with altered expression: approximately 1,000 landmark genes
Experimental: Cells were incubated for 24 hours at 37° C. in a humidified incubator containing 5% CO2 before treatment.
These 1,000× stock solutions were first diluted (100-fold) in culture medium, and then the diluted compounds were transferred to the cell culture plates using CyBi-well vario 384-well tips (another 10-fold dilution). Ultimately, all compounds were diluted 1,000-fold to their desired serial concentrations with a final DMSO concentration of 0.1%. Treated cells were incubated for 24 hours prior to lysis. […] Cell lysate plates were sealed using a plate sealer, kept at room temperature for 30 minutes, and then frozen at −80° C. until L1000 gene expression profiling was performed.
In this study, we utilize L1000, a high-throughput, bead-based gene expression assay in which mRNA is extracted from cultured human cells treated with various chemical or genomic perturbagens (small molecules, gene knockdowns, or gene over-expression constructs) as previously described.^38 This mRNA is reverse-transcribed into first-strand cDNA. Gene specific probes containing barcodes and universal primer sites are annealed to the first strand cDNA. The probes are ligated to form a template for PCR. The template is PCR amplified with biotinylated-universal primers. The end products are biotinylated, fixed length, barcoded amplicons. The amplicons can then be mixed with Luminex beads that contain complementary barcodes to those encoded in each of the 1000 amplified landmark genes. These 1000 landmark genes were chosen as a reduced representation of the transcriptome and account for the majority of expression variation across many cellular contexts (Subramanian, et al., manuscript in preparation). These beads are then stained with fluorescent streptavidin-phycoerythrin (SAPE) and detected in 384-well plate format on a Luminex FlexMap flow cytometry-based scanner. The resulting readout is a measure of mean fluorescent intensity (MFI) for each landmark gene.

[2] = tested on: p21 (CDKN1A) overexpression; experiment: Connectivity map query analysis of L1000 signatures across cell lines; assay type: cell-based, human; details: across multiple cell lines, relative to 430 overexpressed genes
Description: To assess whether our findings extend beyond the context of a single cell type and to incorporate into our analysis orthogonal biological perturbations, we expanded our gene expression studies using L1000 into several cell lines representative of distinct tissue types: PC3 (prostate), HEPG2 (liver), HCC515 (lung), HAlE (kidney), A375 (skin), A549 (lung), HT29 (colon). […] These candidate substrates of HDAC8 may provide a more targeted approach toward specific cancers (or other diseases) driven by the dysregulation of proteins and/or genes within this HDAC8 network. […] Efforts toward defining the functional consequences of the change in acetylation of these proteins by HDAC8 are ongoing.
The raw expression data are log 2-scaled, quantile normalized, and z-scored, such that a differential expression value is achieved for each gene in each well. In the standard L1000 protocol, each well corresponds to a different perturbagen and these differential expression values are collapsed across replicate wells to yield a differential expression signature for each perturbagen. […] To assess this, we did a meta-analysis of the CMap query results (i.e., lists of perturbations ordered by similarity to an input gene expression signature). […] We performed the same analysis with BRD3811 as well. […]

MCF7 cells [3] = experiment: SILAC-based global acetylation profiling; assay type: cell-based; details: compared to DMSO or BRD3811
Description: Using these chemical tools, we compared the changes in global acetylation in a representative cell line known to express HDAC8 (i.e. MCF7) after treatment with each compound using Stable Isotope Labeling of Amino Acids in Cell Culture (SILAC)-based quantitative mass spectrometry (MS). (Ververis, K., Karagiannis, T. C. (2012) An atlas of histone deacetylase expression in breast cancer: fluorescence methodology for comparative semi-quantitative analysis. Am. J. Transl. Res. 4, 24-43). […] Global acetylation profiling was completed by digesting cellular proteins with trypsin and enriching the acetylated peptides by immunoprecipitation using an antibody specific for acetylated lysine residues.
MCF7 cells were grown and expanded from the same frozen vial stock, followed by differentially labeling with non-radioactive stable isotopic amino acids by growing in light, medium, and heavy SILAC media (see below for recipe), respectively (Ong, S. E., et al. Mol. Cell Proteomics 5, 376-386 (2002)). […]
EDTA, 2 μg/ml aprotinin (Sigma-Aldrich), 10 μg/ml leupeptin (Roche Applied Science), 1 mM phenylmethylsulfonyl fluoride (PMSF), and 5 mM sodium butyrate (Sigma-Aldrich). […] Protein concentrations were measured using a bicinchoninic acid (BCA) protein assay. […]

HDAC8 = biological target: T1, HDAC8 (Homo sapiens, UniProt Q9BY41); experiment: Caliper assay, biochemical HDAC IC50; details: relative to PCI-34051
T1 construct: purchased BPS Bioscience
T1 sequence (Q9BY41 1-377): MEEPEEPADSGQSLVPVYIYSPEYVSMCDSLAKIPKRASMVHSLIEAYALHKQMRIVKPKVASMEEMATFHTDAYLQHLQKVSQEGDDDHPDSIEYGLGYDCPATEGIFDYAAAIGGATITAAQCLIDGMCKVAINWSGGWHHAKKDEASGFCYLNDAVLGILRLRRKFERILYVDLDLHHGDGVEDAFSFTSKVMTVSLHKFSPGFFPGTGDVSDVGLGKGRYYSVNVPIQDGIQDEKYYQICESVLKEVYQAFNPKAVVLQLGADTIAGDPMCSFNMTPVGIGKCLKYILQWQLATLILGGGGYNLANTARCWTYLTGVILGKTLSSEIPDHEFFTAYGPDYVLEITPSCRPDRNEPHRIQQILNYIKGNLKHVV
Experimental: The biochemical determination of HDAC ICsos for compounds was performed as described previously (Zhang, Y.-L. et al., Fluorescent substrates for determining lysine modifying enzyme activity, 2013, Patent Application WO 2013067391). All HDACs were purchased from BPS Bioscience. The substrates Broad Substrate A and Broad Substrate B were synthesized in house, but can be purchased from PerkinElmer (Product number CLS960006 and CLS960007, respectively). All other reagents were purchased from Sigma. Caliper EZ reader II system was used to collect all data. Compounds were tested in duplicate in a 12-point dose curve with 3-fold serial dilution starting from 33.33 μM. Purified HDACs were incubated with 2 μM carboxyfluorescein (FAM)-labeled acetylated or trifluoroacetylated peptide substrate (Broad Substrate A and B, respectively) and test compound for 60 min at room temperature, in an HDAC assay buffer that contained 50 mM HEPES (pH 7.4), 100 mM KCl, 0.01% BSA and 0.001% Tween-20. […] Substrate and product were separated electrophoretically and fluorescence intensity in the substrate and product peaks was determined and analyzed by Labchip EZ Reader. […] Inhibition of HDAC10 and 11 was not measured due to either low purity of the available recombinant HDAC enzyme preparations and/or lack of activity of the enzymes and low substrate conversion.

SMILES | p21 protein levels (western blot) (p21) | histone acetylation (MCF-7 cells) | level of the p21 transcript (MCF7 cells [1]; dose range 0.04 μM-10 μM, 24 h) | number of dose-responsive genes with altered expression (MCF7 cells [1]; dose range 0.04 μM-10 μM) [genes] | average percentile rank of similarity to p21 (CDKN1A) overexpression signature [2] [percentile] | changes in histone acetylation status (MCF7 cells [3]) | reduction in potency for inhibition of HDAC8 (HDAC8) | fold_change_at_10_uM CDKN1A (202284_s_at) (MCF7 cells [1]; MCF7, 10 uM, 24 h) | fold_change_at_10_uM CSNK1A1 (206562_s_at) (MCF7 cells [1]; MCF7, 10 uM, 24 h) | fold_change_at_10_uM DUSP3 (201536_at) (MCF7 cells [1]; MCF7, 10 uM, 24 h) | fold_change_at_10_uM ERBB2 (216836_s_at) (MCF7 cells [1]; MCF7, 10 uM, 24 h) | fold_change_at_10_uM GHR (205498_at) (MCF7 cells [1]; MCF7, 10 uM, 24 h) | fold_change_at_10_uM HMGA2 (208025_s_at) (MCF7 cells [1]; MCF7, 10 uM, 24 h) | fold_change_at_10_uM HMOX1 (203665_at) (MCF7 cells [1]; MCF7, 10 uM, 24 h) | fold_change_at_10_uM PRSS23 (202458_at) (MCF7 cells [1]; MCF7, 10 uM, 24 h) | fold_change_at_10_uM SLC25A46 (212833_at) (MCF7 cells [1]; MCF7, 10 uM, 24 h) | fold_change_at_10_uM TXNRD1 (201266_at) (MCF7 cells [1]; MCF7, 10 uM, 24 h) | fold_change_at_10_uM VAT1 (208626_s_at) (MCF7 cells [1]; MCF7, 10 uM, 24 h) | number of dose-responsive genes with altered expression (MCF7 cells [1]; dose range 0.04 M-10 M) [genes]
COc1ccc(Cn2ccc3ccc(C(=O)NO)cc32)cc1 [PCI-34051, reference compound] | increased p21 | not altered | dose-dependent increase | 70 | 96 | did not observe any significant changes | – | – | – | – | – | – | – | – | – | – | – | – | –
COc1ccc(Cn2ccc3cc(C)c(C(=O)NO)cc32)cc1 [BRD3811] | – | – | increased the level of p21 transcript only at the highest dose tested | – | 66 | – | 1,000 fold | 1.956 | 1.623 | 1.586 | 1.614 | 0.7287 | 0.6073 | 2.067 | 0.6507 | 0.5635 | 1.298 | 1.389 | 11
